# Assay results taken from article PMC12587545, “Noncytotoxic polymyxin derivatives enhance antibiotic action against multidrug-resistant Gram-negative bacteria” (Antimicrobial Agents and Chemotherapy, 2025).
# “And” between values parts separate entries of the source, which are not always exact repeats. Equal values may be shown once.
# Legend:
# [1] = tested on: P. aeruginosa; experiment: Checkerboard assay (antibiotic potentiation); type: cell-based, Pseudomonas aeruginosa; conditions: for MICantibiotic: antibiotic alone
# [2] = tested on: K. pneumoniae; experiment: Checkerboard assay (antibiotic potentiation); type: cell-based, Klebsiella pneumoniae; conditions: for MICantibiotic + compound: antibiotic MIC with 8 µg/mL (5 µM) compound 1; for MICantibiotic: antibiotic alone
# Description: (§1) The interaction between the compounds and the antibiotics was evaluated using the fractional inhibitory concentration (FIC) index. FIC indices of ≤0.5 is synergistic, 0.5 < × ≤ 4 is additive, whereas >4 is antagonistic ([34]).
# (§2) Synergy was measured by the FIC index, which is the summation of the individual FICs of the antibiotic and the compound. The FIC is calculated by dividing the MIC of one agent in the presence of another by the MIC of the agent alone. […] The FBS studies were conducted by following a previously published protocol ([29], [50]). The FBS was inactivated by heating at 56°C for 30 min with constant swirling.
# [3] = tested on: MDR Gram-negative bacteria clinical isolates; experiment: Checkerboard assay, summary over strains; type: cell-based; conditions: of all 14 clinical isolates; number (%)
# Description: as §1
# (§3) The antibiotic and compounds were serially diluted 2-fold in CAMHB along the x- and y-axis, respectively, on a 96-well plate that was subsequently incubated with equal volumes of bacterial inoculum overnight at 37°C. Wells containing only media were used as negative controls, and wells containing only bacteria were used as positive controls. Synergy was measured by the FIC index, which is the summation of the individual FICs of the antibiotic and the compound. The FIC is calculated by dividing the MIC of one agent in the presence of another by the MIC of the agent alone. Turbidity was confirmed with a Molecular Devices (United States) EMax Plus microplate reader at a wavelength of 590 nm. The FBS studies were conducted by following a previously published protocol ([29], [50]). The FBS was inactivated by heating at 56°C for 30 min with constant swirling.
# [4] = tested on: E. cloacae; experiment: Checkerboard assay (antibiotic potentiation); type: cell-based, Enterobacter cloacae; conditions: E. cloacae 121887 (colistin-resistant)
# Description: The interaction between the compounds and the antibiotics was evaluated using the fractional inhibitory concentration (FIC) index. FIC indices of ≤0.5 is synergistic, 0.5 < × ≤ 4 is additive, whereas >4 is antagonistic ([34]). […] .
# The bacterial isolates were acquired from ATCC or the Canadian Ward Surveillance (CANWARD) study ([56]). CANWARD isolates were collected from infected patients admitted to participating medical centers across Canada.
# as §3
# [5] = tested on: A. baumannii; experiment: Checkerboard assay (antibiotic potentiation); type: cell-based, Acinetobacter baumannii; set-up: key to FIC index: sum of FICs; ≤0.5 synergistic, 0.5–4 additive, >4 antagonistic; conditions: for MICantibiotic: antibiotic alone
# [6] = tested on: E. coli; experiment: Checkerboard assay (antibiotic potentiation); type: cell-based, Escherichia coli; conditions: for Interpretation: antibiotic + compound 1; for MICantibiotic + compound: antibiotic MIC with 8 µg/mL (5 µM) compound 1; for MICantibiotic: antibiotic alone; for Potentiation: of antibiotic by 8 µg/mL (5 µM) compound 1
# Description: as §1, §2
# [7] = P. aeruginosa 262-101856, antibiotic + compound 1
# [8] = P. aeruginosa 264-105354, antibiotic + compound 1
# [9] = P. aeruginosa 114228 (colistin-resistant), antibiotic + compound 1
# [10] = K. pneumoniae 113250 (colistin-resistant)
# [11] = A. baumannii 110193, antibiotic + compound 1
# [12] = A. baumannii ATCC 17978, antibiotic + compound 1
# [13] = E. coli 94393 (colistin-resistant)
# [14] = E. coli 94474 (colistin-resistant)
smiles,measurement,setting,value
CN(C)c1ccc(O)c2c1C[C@H]1C[C@H]3[C@H](N(C)C)C(O)=C(C(N)=O)C(=O)[C@@]3(O)C(O)=C1C2=O [Minocycline],Interpretation,"[1]; P. aeruginosa 259-96916, antibiotic + compound 1",Synergy (FIC indices of ≤0.5 is synergistic)
same,MICantibiotic + compound,"[1]; P. aeruginosa 259-96916, antibiotic MIC with 8 µg/mL (5 µM) compound 1",0.5 µg/mL
same,MICantibiotic,[1]; P. aeruginosa 259-96916,64 µg/mL
same,Potentiation,"[1]; P. aeruginosa 259-96916, of antibiotic by 8 µg/mL (5 µM) compound 1",128 fold
same,FIC index,[1]; [7],x < 0.078
same,Interpretation,[1]; [7],Synergy (FIC indices of ≤0.5 is synergistic)
same,MICantibiotic + compound,"[1]; P. aeruginosa 262-101856, antibiotic MIC with 8 µg/mL (5 µM) compound 1",2 µg/mL
same,MICantibiotic,[1]; P. aeruginosa 262-101856,>128 µg/mL
same,Potentiation,"[1]; P. aeruginosa 262-101856, of antibiotic by 8 µg/mL (5 µM) compound 1",≥128-fold
same,FIC index,[1]; [8],x < 0.070
same,Interpretation,[1]; [8],Synergy (FIC indices of ≤0.5 is synergistic)
same,MICantibiotic + compound,"[1]; P. aeruginosa 264-105354, antibiotic MIC with 8 µg/mL (5 µM) compound 1",0.5 µg/mL
same,MICantibiotic,[1]; P. aeruginosa 264-105354,>64 µg/mL
same,Potentiation,"[1]; P. aeruginosa 264-105354, of antibiotic by 8 µg/mL (5 µM) compound 1",≥256-fold
same,Interpretation,"[1]; P. aeruginosa 101243 (colistin-resistant), antibiotic + compound 1",Synergy (FIC indices of ≤0.5 is synergistic)
same,MICantibiotic + compound,"[1]; P. aeruginosa 101243 (colistin-resistant), antibiotic MIC with 8 µg/mL (5 µM) compound 1",4 µg/mL
same,MICantibiotic,[1]; P. aeruginosa 101243 (colistin-resistant),16 µg/mL
same,Potentiation,"[1]; P. aeruginosa 101243 (colistin-resistant), of antibiotic by 8 µg/mL (5 µM) compound 1",4 fold
same,FIC index,[1]; [9],x < 0.313
same,Interpretation,[1]; [9],Synergy (FIC indices of ≤0.5 is synergistic)
same,MICantibiotic + compound,"[1]; P. aeruginosa 114228 (colistin-resistant), antibiotic MIC with 8 µg/mL (5 µM) compound 1",16 µg/mL
same,MICantibiotic,[1]; P. aeruginosa 114228 (colistin-resistant),>64 µg/mL
same,Potentiation,"[1]; P. aeruginosa 114228 (colistin-resistant), of antibiotic by 8 µg/mL (5 µM) compound 1",≥8-fold
same,Interpretation,"[1]; P. aeruginosa PAO1, antibiotic + compound 1",Synergy (FIC indices of ≤0.5 is synergistic)
same,Interpretation,"[1]; P. aeruginosa PAO1, antibiotic + compound 3",Additive (0.5 < × ≤ 4 is additive)
same,MICantibiotic + compound,"[1]; P. aeruginosa PAO1, antibiotic MIC with 8 µg/mL (5 µM) compound 1",0.5 µg/mL
same,MICantibiotic + compound,"[1]; P. aeruginosa PAO1, antibiotic MIC with 8 µg/mL (5 µM) compound 3",64 µg/mL
same,MICantibiotic,[1]; P. aeruginosa PAO1,64 µg/mL and 32 µg/mL
same,Potentiation,"[1]; P. aeruginosa PAO1, of antibiotic by 8 µg/mL (5 µM) compound 1",64 fold
same,Potentiation,"[1]; P. aeruginosa PAO1, of antibiotic by 8 µg/mL (5 µM) compound 3",1 fold
same,MICantibiotic + compound,[2]; [10],>4 µg/mL
same,MICantibiotic,[2]; [10],>4 µg/mL
same,Interpretation,"[2]; K. pneumoniae 116381, antibiotic + compound 1",Synergy (FIC indices of ≤0.5 is synergistic)
same,MICantibiotic + compound,[2]; K. pneumoniae 116381,4 µg/mL
same,MICantibiotic,[2]; K. pneumoniae 116381,128 µg/mL
same,Potentiation,"[2]; K. pneumoniae 116381, of antibiotic by 8 µg/mL (5 µM) compound 1",32 fold
same,clinical isolates in which the antibiotic was synergized by compound 1,[3],8 (57%) strains
same,Interpretation,[4]; antibiotic + compound 1,Additive (0.5 < × ≤ 4 is additive)
same,MICantibiotic + compound,[4]; antibiotic MIC with 8 µg/mL (5 µM) compound 1,0.5 µg/mL
same,MICantibiotic,[4]; antibiotic alone,0.5 µg/mL
same,Potentiation,[4]; of antibiotic by 8 µg/mL (5 µM) compound 1,1 fold
same,Interpretation,"[5]; A. baumannii 92247 (colistin-resistant), antibiotic + compound 1",Additive (0.5 < × ≤ 4 is additive)
same,MICantibiotic + compound,"[5]; A. baumannii 92247 (colistin-resistant), antibiotic MIC with 4 µg/mL (2 µM) compound 1",0.25 µg/mL
same,MICantibiotic,[5]; A. baumannii 92247 (colistin-resistant),0.25 µg/mL
same,Potentiation,"[5]; A. baumannii 92247 (colistin-resistant), of antibiotic by 4 µg/mL (2 µM) compound 1",1 fold
same,FIC index,[5]; [11],0.75
same,Interpretation,[5]; [11],Additive (0.5 < × ≤ 4 is additive)
same,MICantibiotic + compound,"[5]; A. baumannii 110193, antibiotic MIC with 4 µg/mL (2 µM) compound 1",2 µg/mL
same,MICantibiotic,[5]; A. baumannii 110193,2 µg/mL
same,Potentiation,"[5]; A. baumannii 110193, of antibiotic by 4 µg/mL (2 µM) compound 1",1 fold
same,Interpretation,"[5]; A. baumannii AB027, antibiotic + compound 1",Additive (0.5 < × ≤ 4 is additive)
same,MICantibiotic + compound,"[5]; A. baumannii AB027, antibiotic MIC with 4 µg/mL (2 µM) compound 1",1 µg/mL
same,MICantibiotic,[5]; A. baumannii AB027,2 µg/mL
same,Potentiation,"[5]; A. baumannii AB027, of antibiotic by 4 µg/mL (2 µM) compound 1",2 fold
same,Interpretation,"[5]; A. baumannii AB031, antibiotic + compound 1",Additive (0.5 < × ≤ 4 is additive)
same,MICantibiotic + compound,"[5]; A. baumannii AB031, antibiotic MIC with 4 µg/mL (2 µM) compound 1",1 µg/mL
same,MICantibiotic,[5]; A. baumannii AB031,2 µg/mL
same,Potentiation,"[5]; A. baumannii AB031, of antibiotic by 4 µg/mL (2 µM) compound 1",2 fold
same,FIC index,[5]; [12],0.254
same,Interpretation,[5]; [12],Synergy (FIC indices of ≤0.5 is synergistic)
same,Interpretation,"[5]; A. baumannii ATCC 17978, antibiotic + compound 3",Additive (0.5 < × ≤ 4 is additive)
same,MICantibiotic + compound,"[5]; A. baumannii ATCC 17978, antibiotic MIC with 8 µg/mL (5 µM) compound 3",0.125 µg/mL
same,MICantibiotic + compound,"[5]; A. baumannii ATCC 17978, antibiotic MIC with ¼ MIC (≤5 µM) of compound 1",0.004 µg/mL
same,Potentiation,"[5]; A. baumannii ATCC 17978, of antibiotic by 8 µg/mL (5 µM) compound 3",1 fold
same,Potentiation,"[5]; A. baumannii ATCC 17978, of antibiotic by ¼ MIC (≤5 µM) of compound 1",256 fold
same,Interpretation,[6]; [13],Synergy (FIC indices of ≤0.5 is synergistic)
same,MICantibiotic + compound,[6]; [13],0.125 µg/mL
same,MICantibiotic,[6]; [13],0.5 µg/mL
same,Potentiation,[6]; [13],4 fold
same,Interpretation,[6]; [14],Synergy (FIC indices of ≤0.5 is synergistic)
same,MICantibiotic + compound,[6]; [14],8 µg/mL
same,MICantibiotic,[6]; [14],64 µg/mL
same,Potentiation,[6]; [14],8 fold
